Laboratory results from patent US20210122730A1, “GLUCOCORTICOID RECEPTOR MODULATORS” (ORIC Pharmaceuticals, Inc., priority 2017, published 2021).

Target: T1, GR (Homo sapiens, UniProt P04150)
T1 construct: expressed in transfected cells; host or cells: CHO-K1
T1 sequence (P04150 1-777): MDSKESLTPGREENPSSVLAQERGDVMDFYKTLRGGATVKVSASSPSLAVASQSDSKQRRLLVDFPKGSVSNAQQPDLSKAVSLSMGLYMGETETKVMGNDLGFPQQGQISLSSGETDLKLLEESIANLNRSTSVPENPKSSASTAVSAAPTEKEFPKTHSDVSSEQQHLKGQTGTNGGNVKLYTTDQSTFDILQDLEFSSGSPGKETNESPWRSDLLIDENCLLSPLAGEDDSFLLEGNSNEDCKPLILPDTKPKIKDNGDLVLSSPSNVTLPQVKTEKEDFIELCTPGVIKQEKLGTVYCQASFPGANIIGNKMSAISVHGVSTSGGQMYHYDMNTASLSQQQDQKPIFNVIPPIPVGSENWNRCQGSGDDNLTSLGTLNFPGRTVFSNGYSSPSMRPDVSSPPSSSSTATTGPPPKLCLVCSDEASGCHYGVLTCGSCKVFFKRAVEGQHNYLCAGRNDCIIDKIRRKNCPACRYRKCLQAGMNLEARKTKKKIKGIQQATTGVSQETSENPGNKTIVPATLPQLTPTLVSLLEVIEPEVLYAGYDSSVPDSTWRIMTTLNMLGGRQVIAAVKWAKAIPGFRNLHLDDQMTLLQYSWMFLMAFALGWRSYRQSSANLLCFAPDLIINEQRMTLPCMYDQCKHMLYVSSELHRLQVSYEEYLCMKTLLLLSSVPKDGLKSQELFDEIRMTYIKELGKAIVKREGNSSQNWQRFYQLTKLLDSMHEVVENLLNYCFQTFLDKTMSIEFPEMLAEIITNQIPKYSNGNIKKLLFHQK
Experiment: In Vitro GR Luciferase Reporter Assay (antagonist mode, CHO-K1-GR-MMTV-Luc reporter cells)
Type: cell-based
Settings: antagonist assay with 10 nM Dexamethasone, 18-24 hours
Outline: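 Antagonist mode: compounds (8 serial 1:5 dilutions) added to GR-MMTV-luciferase CHO-K1 reporter cells co-exposed to 10 nM dexamethasone final, in phenol red-free DMEM plus 10% CSS. After roughly 18-24 h at 37° C, OneGlo luminescence read and IC50 calculated.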

Compound | IC50 [nM]
O=C(c1cc(C(F)(F)F)ccn1)[C@]12Cc3cnn(-c4ccc(F)cc4)c3C=C1CC[C@@H](S(=O)(=O)c1cnns1)C2 [Example 27, ((4aS,6R)-6-((1,2,3-thiadiazol-5-yl)sulfonyl)-1-(4-fluorophenyl)-1,4,5,6,7,8-hexahydro-4aH-benzo[f]indazol-4a-yl)(4-(trifluoromethyl)pyridin-2-yl)methanone] | 100 to 1000
O=C(c1cc(C(F)(F)F)ccn1)[C@]12Cc3cnn(-c4ccc(F)cc4)c3C=C1CC[C@H](S(=O)(=O)c1cnn(C3CC3)n1)C2 [Example 73, ((4aS,6S)-6-((2-cyclopropyl-2H-1,2,3-triazol-4-yl)sulfonyl)-1-(4-fluorophenyl)-1,4,5,6,7,8-hexahydro-4aH-benzo[f]indazol-4a-yl)(4-(trifluoromethyl)pyridin-2-yl)methanone] | ≤ 100
O=C(c1ccccn1)[C@]12Cc3cnn(-c4ccc(F)cc4)c3C=C1CC[C@H](S(=O)(=O)N1CCCCC1)C2 [Example 7, [(4aS,6S)-1-(4-Fluorophenyl)-6-(1-piperidylsulfonyl)-5,6,7,8-tetrahydro-4H-benzo[f]indazol-4a-yl]-(2-pyridyl)methanone] | ≤ 100
O=C(c1cc(C(F)(F)F)ccn1)[C@]12Cc3cnn(-c4ccc(F)cc4)c3C=C1CC[C@H](S(=O)(=O)C1CCOCC1)C2 [Example 59, ((4aS,6S)-1-(4-fluorophenyl)-6-((tetrahydro-2H-pyran-4-yl)sulfonyl)-1,4,5,6,7,8-hexahydro-4aH-benzo[f]indazol-4a-yl)(4-(trifluoromethyl)pyridin-2-yl)methanone] | ≤ 100
O=C(c1ccccn1)[C@]12Cc3cnn(-c4ccc(F)cc4)c3C=C1CC[C@H](S(=O)(=O)C1CCCC1)C2 [Example 50, ((4aS,6S)-6-(cyclopentylsulfonyl)-1-(4-fluorophenyl)-1,4,5,6,7,8-hexahydro-4aH-benzo[f]indazol-4a-yl)(pyridin-2-yl)methanone] | ≤ 100
O=C(c1ccccn1)[C@]12Cc3cnn(-c4ccc(F)cc4)c3C=C1CC[C@H](S(=O)(=O)c1cccc(C(F)(F)F)c1)C2 [Example 28, ((4aS,6S)-1-(4-fluorophenyl)-6-((3-(trifluoromethyl)phenyl)sulfonyl)-1,4,5,6,7,8-hexahydro-4aH-benzo[f]indazol-4a-yl)(pyridin-2-yl)methanone] | ≤ 100
Cc1ccc(C(=O)[C@]23Cc4cnn(-c5ccc(F)cc5)c4C=C2CC[C@@H](S(=O)(=O)c2ccccc2)C3)nc1 [Example 51, ((4aS,6R)-1-(4-fluorophenyl)-6-(phenylsulfonyl)-1,4,5,6,7,8-hexahydro-4aH-benzo[f]indazol-4a-yl)(5-methylpyridin-2-yl)methanone] | ≤ 100
O=C(c1ccc(Cl)cn1)[C@]12Cc3cnn(-c4ccc(F)cc4)c3C=C1CC[C@H](S(=O)(=O)c1ccccn1)C2 [Example 74, (5-chloropyridin-2-yl)((4aS,6S)-1-(4-fluorophenyl)-6-(pyridin-2-ylsulfonyl)-1,4,5,6,7,8-hexahydro-4aH-benzo[f]indazol-4a-yl)methanone] | ≤ 100

The remaining lines, values ahead:

IC50 [nM] | Compound
≤ 100 | CC(C)n1cc(S(=O)(=O)N(C)[C@H]2CCC3=Cc4c(cnn4-c4ccc(F)cc4)C[C@]3(C(=O)c3cc(C(F)(F)F)ccn3)C2)cn1 [Example 97, N-((4aS,6S)-1-(4-fluorophenyl)-4a-(4-(trifluoromethyl)picolinoyl)-4,4a,5,6,7,8-hexahydro-1H-benzo[f]indazol-6-yl)-1-isopropyl-N-methyl-1H-pyrazole-4-sulfonamide]
≤ 100 | CCn1cc(S(=O)(=O)N(C)[C@H]2CCC3=Cc4c(cnn4-c4ccc(F)cc4)C[C@]3(C(=O)c3cc(C(F)(F)F)ccn3)C2)cn1 [Example 87, 1-ethyl-N-((4aS,6S)-1-(4-fluorophenyl)-4a-(4-(trifluoromethyl)picolinoyl)-4,4a,5,6,7,8-hexahydro-1H-benzo[f]indazol-6-yl)-N-methyl-1H-pyrazole-4-sulfonamide]
≤ 100 | Cn1cc(S(=O)(=O)[C@H]2CCC3=Cc4c(cnn4-c4ccc(F)cc4)C[C@]3(C(=O)c3ccc(OC(F)(F)F)cn3)C2)cn1 [Example 66, ((4aS,6S)-1-(4-fluorophenyl)-6-((1-methyl-1H-pyrazol-4-yl)sulfonyl)-1,4,5,6,7,8-hexahydro-4aH-benzo[f]indazol-4a-yl)(5-(trifluoromethoxy)pyridin-2-yl)methanone]

Same assay, conditions: antagonist mode, 10 nM Dexamethasone

Compound | IC50 [nM]
Cn1ccc(S(=O)(=O)N(CC2CC2)[C@H]2CCC3=Cc4c(cnn4-c4ccc(F)cc4)C[C@]3(C(=O)c3nccs3)C2)n1 [Example 172, N-(cyclopropylmethyl)-N-((4aS,6S)-1-(4-fluorophenyl)-4a-(thiazole-2-carbonyl)-4,4a,5,6,7,8-hexahydro-1H-benzo[f]indazol-6-yl)-1-methyl-1H-pyrazole-3-sulfonamide] | ≤ 100
Cn1ccc(S(=O)(=O)CC2CCC3=Cc4c(cnn4-c4ccc(F)cc4)C[C@]3(C(=O)c3ccc(C(F)(F)F)cn3)C2)n1 (stereo partly drawn) [Example 360, ((4aR)-1-(4-fluorophenyl)-6-(((1-methyl-1H-pyrazol-3-yl)sulfonyl)methyl)-1,4,5,6,7,8-hexahydro-4aH-benzo[f]indazol-4a-yl)(5-(trifluoromethyl)pyridin-2-yl)methanone] | ≤ 100
Cn1ccc(S(=O)(=O)N(CC(=O)O)[C@H]2CCC3=Cc4c(cnn4-c4ccc(F)cc4)C[C@]3(C(=O)c3cc(C(F)(F)F)ccn3)C2)n1 [Example 401, N-((4aS,6S)-1-(4-fluorophenyl)-4a-(4-(trifluoromethyl)picolinoyl)-4,4a,5,6,7,8-hexahydro-1H-benzo[f]indazol-6-yl)-N-((1-methyl-1H-pyrazol-3-yl)sulfonyl)glycine] | 100 to 1000
Cn1cc(S(=O)(=O)N(CC2CC2)[C@H]2CCC3=Cc4c(cnn4-c4ccc(F)cc4)C[C@]3(C(=O)c3cc(F)ccn3)C2)nn1 [Example 297, N-(cyclopropylmethyl)-N-((4aS,6S)-1-(4-fluorophenyl)-4a-(4-fluoropicolinoyl)-4,4a,5,6,7,8-hexahydro-1H-benzo[f]indazol-6-yl)-1-methyl-1H-1,2,3-triazole-4-sulfonamide] | ≤ 100
CCn1ncc(S(=O)(=O)N(C)[C@H]2CCC3=Cc4c(cnn4-c4ccc(F)cc4)C[C@]3(C(=O)c3ccc(C4CC4)cn3)C2)n1 [Example 130, N-((4aS,6S)-4a-(5-cyclopropylpicolinoyl)-1-(4-fluorophenyl)-4,4a,5,6,7,8-hexahydro-1H-benzo[f]indazol-6-yl)-2-ethyl-N-methyl-2H-1,2,3-triazole-4-sulfonamide] | ≤ 100

More lines, now with the values ahead:

IC50 [nM] | Compound
≤ 100 | CCN([C@H]1CCC2=Cc3c(cnn3-c3ccc(F)cc3)C[C@]2(C(=O)c2cc(C(F)(F)F)ccn2)C1)S(=O)(=O)c1cnn(CC)c1 [Example 132, N,1-diethyl-N-((4aS,6S)-1-(4-fluorophenyl)-4a-(4-(trifluoromethyl)picolinoyl)-4,4a,5,6,7,8-hexahydro-1H-benzo[f]indazol-6-yl)-1H-pyrazole-4-sulfonamide]
≤ 100 | Cn1ccc(S(=O)(=O)N(C2CC2)[C@H]2CCC3=Cc4c(cnn4-c4ccc(F)cc4)C[C@]3(C(=O)c3ccc(C4CC4)cn3)C2)n1 [Example 152, N-cyclopropyl-N-((4aS,6S)-4a-(5-cyclopropylpicolinoyl)-1-(4-fluorophenyl)-4,4a,5,6,7,8-hexahydro-1H-benzo[f]indazol-6-yl)-1-methyl-1H-pyrazole-3-sulfonamide]
≤ 100 | O=C(c1ncc(C(F)(F)F)s1)[C@]12Cc3cnn(-c4ccc(F)cc4)c3C=C1CC[C@H](N(C1CC1)S(=O)(=O)c1cnn(C(F)F)c1)C2 [Example 180, N-cyclopropyl-1-(difluoromethyl)-N-((4aS,6S)-1-(4-fluorophenyl)-4a-(5-(trifluoromethyl)thiazole-2-carbonyl)-4,4a,5,6,7,8-hexahydro-1H-benzo[f]indazol-6-yl)-1H-pyrazole-4-sulfonamide]
≤ 100 | CCn1cc(S(=O)(=O)N(C2CC2)[C@H]2CCC3=Cc4c(cnn4-c4ccc(F)cc4)C[C@]3(C(=O)c3cc(C(F)(F)F)ccn3)C2)cn1 [Example 158, N-cyclopropyl-1-ethyl-N-((4aS,6S)-1-(4-fluorophenyl)-4a-(4-(trifluoromethyl)picolinoyl)-4,4a,5,6,7,8-hexahydro-1H-benzo[f]indazol-6-yl)-1H-pyrazole-4-sulfonamide]
≤ 100 | Cn1cc(S(=O)(=O)N(C2CC(F)(F)C2)[C@H]2CCC3=Cc4c(cnn4-c4ccc(F)cc4)C[C@]3(C(=O)c3cc(C(F)(F)F)ccn3)C2)cn1 [Example 411, N-(3,3-difluorocyclobutyl)-N-((4aS,6S)-1-(4-fluorophenyl)-4a-(4-(trifluoromethyl)picolinoyl)-4,4a,5,6,7,8-hexahydro-1H-benzo[f]indazol-6-yl)-1-methyl-1H-pyrazole-4-sulfonamide]
